Results taken from patent US20040132188A1, “Use of non-complexing peptides for the preparation of a composition for transfection of a polynucleotide into a cell and compositions useful in gene therapy” (priority 2001, published 2004).
Entries after “also recorded” stand apart in the source; their conditions may differ. Ends that are not written are not given here.

Columns and labels:
[1] = tested on: B6SJL mice, lungs; experiment: In vivo gene transfer after intravenous injection, luciferase activity in the lungs; conditions: 3 days after injection
[2] = tested on: 293-EBNA cells; experiment: Transfection in vitro, luciferase plasmid pTG11056; type: cell-based; conditions: charge ratio around 1
Method: Cells were plated on 24 well plates at a density of 4×10^4 (293-EBNA ) or 7×10^4 (HeLa, Renca) cells/well in DMEM supplemented with 10% FCS. The next day, the medium was replaced by 200 μl serum-free DMEM and plasmid (PTG11056 or pTG11236)/peptide complexes or plasmid/peptide/lipid complexes were prepared in 30 μl 0.9% NaCl or 5% glucose. After 20 min at room temperature these complexes were added to the cells which were then incubated for 2-3 h at 37° C. and 5% CO2 before 1 ml serum-containing DMEM was added. Approximately 20 hours later, cells were lysed by addition of 100 μl 1× Promega lysis buffer, 20 μl of the lysates were analysed for luciferase activity. Proteins were quantified with the bicinchonic acid (BCA) colorimetric method (Smith, Anal. Biochem. 150 (1985), 76-85).
4×10^4 293-EBNA cells, plated on 24 well plates the day before, were transfected with 0.5 μg, 0.1 μg, 0.05 μg arid 0.01 μg of the plasmid pTG11056. The plasmid was either mixed with completely or uncompletely DNA-complexing amounts of ppTG1 in 30 μl 5% glucose and after 20 min at room temperature the mixture was added to the cells which were incubated in 200 μl serum-free medium. Further, pTG11056 was formulated with the established transfection reagents Lipofectin and PEI. […] After twenty hours, cells were washed and luciferase activity was determined in ⅕of the lysed cells.

[3] = tested on: WiDr, MDA-MB-435S, SW480 and LoVo; experiment: Transfection of human tumor cell lines; type: cell-based; conditions: peptide/plasmid pTG11236 complexes, luciferase day 1
Method: WiDr (ATCC CCL-218), MDA-MB-435S (ATCC HTB-129), SW480 (ATCC CCL-228) and LoVo cell (CCL-229) were cultivated in the appropriate medium with 10% fetal calf serum, 1% gentamycine, 1% glutamine and 3 g/l glucose, in an incubator at 37° C. and 5% CO2.
The transfection efficiencies with plasmid/ppTG1 complexes were tested in the human tumor cells WiDr, MDA-MB-435S, SW480 and LoVo (ATCC) in comparison to lipofectin, PEI and pcTG90/DOPE (1:1) [±] 5.

Question: Which “gene expression over time” value [1] does the source give for GLFKALLKLLKSLWKLLLKA here?
Answer: The value was “background levels”.

Question: What about the transfection efficiency ([2]; 0.05 μg pTG11056 with 0.065 μg peptide) of the same sequence?
Answer: Its transfection efficiency is “high transfection efficiency”.

Question: What about the luciferase activities ([2]; 0.5 μg pTG11056 with 0.65 μg peptide) of the same sequence?
Answer: Its luciferase activities is “higher than those observed with complexes formed with Lipofectin or PEI”.

Question: What about the “transfection of human tumor cell lines” value [3] of the same sequence?
Answer: Its value is “successfully transfected; also recorded: can efficiently transfect”.
